Results as given in patent US12552799B2, “Triazolone compounds” (Nxera Pharma UK Limited, priority 2020, dated 2026).

Tests used:
[1] = target: human adenosine A2A receptor (Homo sapiens (Human), UniProt P29274); test: Adenosine receptor binding assay, A2A ([3H]ZM241385 inhibition binding on HEK293 membranes); conditions: 1 nM [3H]ZM241385, 25° C., 1 h; Ki from IC50 by Cheng-Prusoff
Procedure: (§1) Inhibition binding assays were performed using 0.2 μg of membranes prepared from HEK293 cells infected with BacMam human adenosine A2A receptor or 1.4 μg of membranes prepared from HEK293 cells infected with BacMam human adenosine A1 receptor. Membranes were incubated in 50 mM Tris-HCl (HEK293-hA2A; pH 7.4) or 50 mM Tris-HCl, 100 mM NaCl, 10 mM MgCl2 (CHO-hA1; pH 7.4) in the presence of varying concentrations of test compound and 1 nM [^3H]ZM241385 (HEK293-hA2A) or [^3H]DPCPX (CHO-hA1) at 25° C. for 1 h. The assay was then terminated by rapid filtration onto GF/B grade Unifilter plates using a TomTec cell harvester, followed by 5×0.5 ml washes with ddH2O. Nonspecific binding was defined in the presence of 1 μM CGS15943 (HEK293-hA2A) or 1 μM DPCPX (CHO-hA1). Bound radioactivity was determined by liquid scintillation counting and inhibition curves were analysed using a four-parameter logistic equation. IC50 values were converted to Ki values with the Cheng-Prusoff equation using a KD value derived from saturation binding studies.

[2] = target: human adenosine A1 receptor (Homo sapiens (Human), UniProt P30542); test: Adenosine receptor binding assay, A1 ([3H]DPCPX inhibition binding on membranes); conditions: 1 nM [3H]DPCPX, 25° C., 1 h; Ki from IC50 by Cheng-Prusoff
Procedure: as §1

[3] = target: human CB-1 cannabinoid receptor (Homo sapiens (Human), UniProt P21554); test: CB-1 receptor radioligand binding assay ([3H]CP 55940, transfected CHO cell membranes); conditions: 0.5 nM [3H]CP 55940, 120 min at 37° C., agonist site
Procedure: Nonspecific binding is determined in the presence of 10 μM WIN 55212-2.
Following incubation, the samples are filtered rapidly under vacuum through glass fiber filters (GF/B, Packard) presoaked with 0.3% PEI and rinsed several times with an ice-cold buffer containing 50 mM Tris-HCl (pH 7.4) and 0.5% BSA using a 96-sample cell harvester (Unifilter, Packard). The filters are dried then counted for radioactivity in a scintillation counter (Topcount, Packard) using a scintillation cocktail (Microscint O, Packard).
The standard reference compound is CP 55940 which is tested in each experiment at several concentrations to obtain a competition curve from which its IC50 is calculated.
In Table 5, blank entries for Ki indicate that the observed binding was too weak to measure a Ki value.

human CB1 receptor = human CB1 receptor (Homo sapiens (Human), UniProt P21554); test: CB1 receptor antagonism, agonist-induced cAMP modulation (HTRF) in transfected CHO cells; format: cell-based; conditions: inhibition of control response to 3 nM CP 55940, cAMP HTRF, read-out: Antag IC50
Procedure: Receptor antagonism: Evaluation of the antagonist activity of compounds at the human CB1 receptor expressed in transfected CHO cells, determined by measuring their effects on agonist-induced cAMP modulation using the HTRF detection method.
The cells are suspended in HBSS buffer (Invitrogen) complemented with 20 mM HEPES (pH 7.4), then distributed in microplates at a density of 5.10^3 cells/well and preincubated for 5 min at room temperature in the presence of either of the following: HBSS (stimulated control), the reference antagonist AM 281 at 3 μM (basal control) or various concentrations (IC50 determination), or the test compounds.
Thereafter, the reference agonist CP 55940 and the adenylyl cyclase activator NKH 477 are added at respective final concentrations of 3 nM and 3 μM.
For basal control measurements, CP 55940 is omitted from the wells containing 3 μM AM 281.
Following 20 min incubation at 37° C., the cells are lysed and the fluorescence acceptor (D2-labeled cAMP) and fluorescence donor (anti-cAMP antibody labeled with europium cryptate) are added.
After 60 min at room temperature, the fluorescence transfer is measured at λex=337 nm and λem=620 and 665 nm using a microplate reader (Rubystar, BMG). The cAMP concentration is determined by dividing the signal measured at 665 nm by that measured at 620 nm (ratio).
The results are expressed as a percent inhibition of the control response to 3 nM CP 55940.
The standard reference antagonist is AM 281, which is tested in each experiment at several concentrations to generate a concentration-response curve from which its IC50 value is calculated.

Sequence of human adenosine A1 receptor (P30542 whole entry): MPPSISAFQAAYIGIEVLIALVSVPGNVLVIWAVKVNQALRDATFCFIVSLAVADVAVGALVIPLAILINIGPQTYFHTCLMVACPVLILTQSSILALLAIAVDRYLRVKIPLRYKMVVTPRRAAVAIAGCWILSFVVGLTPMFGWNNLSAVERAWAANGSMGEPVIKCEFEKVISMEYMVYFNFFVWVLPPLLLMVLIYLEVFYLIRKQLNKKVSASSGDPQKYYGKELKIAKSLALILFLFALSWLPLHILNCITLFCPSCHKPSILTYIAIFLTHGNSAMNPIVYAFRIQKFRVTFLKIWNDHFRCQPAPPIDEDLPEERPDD
Sequence of human adenosine A2A receptor (P29274 whole entry): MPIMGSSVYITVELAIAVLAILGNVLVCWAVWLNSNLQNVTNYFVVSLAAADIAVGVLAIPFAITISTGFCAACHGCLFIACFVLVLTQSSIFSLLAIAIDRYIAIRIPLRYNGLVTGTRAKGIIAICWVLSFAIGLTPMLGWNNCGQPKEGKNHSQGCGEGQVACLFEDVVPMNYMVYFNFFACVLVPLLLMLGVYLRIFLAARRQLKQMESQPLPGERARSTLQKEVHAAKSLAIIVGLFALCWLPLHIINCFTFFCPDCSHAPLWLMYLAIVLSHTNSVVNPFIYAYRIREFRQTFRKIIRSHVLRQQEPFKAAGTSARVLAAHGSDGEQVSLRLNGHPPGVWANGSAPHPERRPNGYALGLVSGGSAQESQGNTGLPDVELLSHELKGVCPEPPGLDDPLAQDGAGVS
Sequence of human CB1 receptor (P21554 whole entry): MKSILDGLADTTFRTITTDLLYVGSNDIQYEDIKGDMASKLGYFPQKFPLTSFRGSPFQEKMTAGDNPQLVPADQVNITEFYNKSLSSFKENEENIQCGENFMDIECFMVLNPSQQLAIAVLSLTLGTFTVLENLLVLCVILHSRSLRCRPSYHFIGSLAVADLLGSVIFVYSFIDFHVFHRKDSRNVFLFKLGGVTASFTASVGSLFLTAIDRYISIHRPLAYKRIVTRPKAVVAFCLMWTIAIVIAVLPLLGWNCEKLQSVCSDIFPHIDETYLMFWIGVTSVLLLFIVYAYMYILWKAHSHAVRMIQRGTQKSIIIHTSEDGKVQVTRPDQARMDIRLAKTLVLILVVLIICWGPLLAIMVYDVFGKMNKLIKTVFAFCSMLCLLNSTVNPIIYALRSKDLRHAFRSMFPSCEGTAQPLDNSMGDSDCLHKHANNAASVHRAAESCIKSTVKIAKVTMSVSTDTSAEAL
Sequence of human CB-1 cannabinoid receptor (P21554 whole entry): as above

Structure (SMILES)	A2A pKi [1]	A1 pKi [2]	Ki [3] [µM]	IC50 (human CB1 receptor) [µM]
C[C@@H]1CN(c2c(-c3ccccc3)nc(N)n3c(=O)n(C[C@H]4COCCN4C)nc23)C[C@H](C)O1 [Example 1-12, 5-amino-8-[(cis)-2,6-dimethylmorpholin-4-yl]-2-[[(3S)-4-methylmorpholin-3-yl]methyl]-7-phenyl-[1,2,4]triazolo[4,3-c]pyrimidin-3-one]	6.9	<5.4		
Cc1ocnc1Cn1nc2c(-c3cc(C)c4[nH]ccc4c3)c(-c3ccccc3)nc(N)n2c1=O [Example 4-12, 5-amino-8-(7-methyl-1H-indol-5-yl)-2-[(5-methyloxazol-4-yl)methyl]-7-phenyl-[1,2,4]triazolo[4,3-c]pyrimidin-3-one]	9.3	7.2	39.6	22.5
Cc1ocnc1Cn1nc2c(-c3cc(C)c4[nH]ncc4c3)c(-c3ccc(F)cc3)nc(N)n2c1=O [Example 4-8, 5-amino-7-(4-fluorophenyl)-8-(7-methyl-1H-indazol-5-yl)-2-[(5-methyloxazol-4-yl)methyl]-[1,2,4]triazolo[4,3-c]pyrimidin-3-one]	9.6	8.4		
C[C@@H]1CN(c2c(-c3ccccc3)nc(N)n3c(=O)n(CCc4ccccc4)nc23)C[C@H](C)O1 [Example 1-17, 5-amino-8-[(cis)-2,6-dimethylmorpholin-4-yl]-7-phenyl-2-(2-phenylethyl)-[1,2,4]triazolo[4,3-c]pyrimidin-3-one]	7.2	<5.8		
C[C@@H]1CN(c2c(-c3ccccc3)nc(N)n3c(=O)n(C[C@H]4COCCN4)nc23)C[C@H](C)O1 [Example 1-10, 5-amino-8-[(cis)-2,6-dimethylmorpholin-4-yl]-2-[[(3S)-morpholin-3-yl]methyl]-7-phenyl-[1,2,4]triazolo[4,3-c]pyrimidin-3-one]	6.9	<5.4		
Cc1nc(Cn2nc3c(-c4cc(C)c5ncoc5c4)c(-c4ccc(F)cc4)nc(N)n3c2=O)c(C)o1 [Example 4-7, 5-amino-2-[(2,5-dimethyloxazol-4-yl)methyl]-7-(4-fluorophenyl)-8-(4-methyl-1,3-benzoxazol-6-yl)-[1,2,4]triazolo[4,3-c]pyrimidin-3-one]	9.9	7.7		
C[C@@H]1CC(c2c(-c3ccccc3)nc(N)n3c(=O)n(CCC(F)(F)F)nc23)C[C@H](C)O1 (stereo partly drawn) [Example 2-2, 5-amino-8-[(cis)-2,6-dimethyltetrahydropyran-4-yl]-7-phenyl-2-(3,3,3-trifluoropropyl)-[1,2,4]triazolo[4,3-c]pyrimidin-3-one]	7.4	<5.5		
Cc1ocnc1Cn1nc2c(-c3cc(C)c4ncoc4c3)c(-c3ccccc3)nc(N)n2c1=O [Example 4-6, 5-amino-8-(4-methyl-1,3-benzoxazol-6-yl)-2-[(5-methyloxazol-4-yl)methyl]-7-phenyl-[1,2,4]triazolo[4,3-c]pyrimidin-3-one]				17.9
C[C@@H]1CN(c2c(-c3ccc(F)cc3)nc(N)n3c(=O)n(CCC(F)(F)F)nc23)C[C@H](C)O1 [Example 1-5, 5-amino-8-[(cis)-2,6-dimethylmorpholin-4-yl]-7-(4-fluorophenyl)-2-(3,3,3-trifluoropropyl)-[1,2,4]triazolo[4,3-c]pyrimidin-3-one]	7.3	<5.5		
C[C@@H]1CN(c2c(-c3ccccc3)nc(N)n3c(=O)n(C[C@@H]4COCCN4C)nc23)C[C@H](C)O1 [Example 1-13, 5-amino-8-[(cis)-2,6-dimethylmorpholin-4-yl]-2-[[(3R)-4-methylmorpholin-3-yl]methyl]-7-phenyl-[1,2,4]triazolo[4,3-c]pyrimidin-3-one]	7.1	<5.4		
C[C@@H]1CN(c2c(-c3ccccc3)nc(N)n3c(=O)n(C[C@H]4CCCO4)nc23)C[C@H](C)O1 [Example 1-8, 5-amino-8-[(cis)-2,6-dimethylmorpholin-4-yl]-7-phenyl-2-[[(2R)-tetrahydrofuran-2-yl]methyl]-[1,2,4]triazolo[4,3-c]pyrimidin-3-one]				> 100
CCCn1nc2c(N3C[C@@H](C)O[C@@H](C)C3)c(-c3ccc(F)cc3)nc(N)n2c1=O [Example 1-6, 5-amino-8-[(cis)-2,6-dimethylmorpholin-4-yl]-7-(4-fluorophenyl)-2-propyl-[1,2,4]triazolo[4,3-c]pyrimidin-3-one]	6.9	6.4		
C[C@@H]1CN(c2c(-c3ccccc3)nc(N)n3c(=O)n(CCC(F)F)nc23)C[C@H](C)O1 [Example 1-3, 5-amino-2-(3,3-difluoropropyl)-8-[(cis)-2,6-dimethylmorpholin-4-yl]-7-phenyl-[1,2,4]triazolo[4,3-c]pyrimidin-3-one]	7.1	<5.4		
Cc1ccc(Cn2nc3c(-c4cc(C)c5ncoc5c4)c(-c4ccc(F)cc4)nc(N)n3c2=O)nc1 [Example 4-3, 5-amino-7-(4-fluorophenyl)-8-(4-methyl-1,3-benzoxazol-6-yl)-2-[(5-methyl-2-pyridyl)methyl]-[1,2,4]triazolo[4,3-c]pyrimidin-3-one]	9.8	6.9		
C[C@@H]1CN(c2c(-c3ccccc3)nc(N)n3c(=O)n(CCN4CCCCC4)nc23)C[C@H](C)O1 [Example 1-9, 5-amino-8-[(cis)-2,6-dimethylmorpholin-4-yl]-7-phenyl-2-[2-(1-piperidyl)ethyl]-[1,2,4]triazolo[4,3-c]pyrimidin-3-one]	6.7	<5.5		
Cc1cc(-c2c(-c3ccccc3)nc(N)n3c(=O)n(Cc4ccc(F)cn4)nc23)cc(C)c1O [Example 3-1, 5-amino-2-[(5-fluoro-2-pyridyl)methyl]-8-(4-hydroxy-3,5-dimethyl-phenyl)-7-phenyl-[1,2,4]triazolo[4,3-c]pyrimidin-3-one]				> 100
COc1ncccc1Cn1nc2c(N3C[C@@H](C)O[C@@H](C)C3)c(-c3ccccc3)nc(N)n2c1=O [Example 1-15, 5-amino-8-[(cis)-2,6-dimethylmorpholin-4-yl]-2-[(2-methoxy-3-pyridyl)methyl]-7-phenyl-[1,2,4]triazolo[4,3-c]pyrimidin-3-one]	8.4	6.4		
C[C@@H]1CN(c2c(-c3ccccc3)nc(N)n3c(=O)n(Cc4cccnn4)nc23)C[C@H](C)O1 [Example 1-16, 5-amino-8-[(cis)-2,6-dimethylmorpholin-4-yl]-7-phenyl-2-(pyridazin-3-ylmethyl)-[1,2,4]triazolo[4,3-c]pyrimidin-3-one]	7.2	6.1		
[2H]c1c([2H])c([2H])c(-c2nc(N)n3c(=O)n(Cc4ncoc4C)nc3c2-c2cc(C)c3[nH]ncc3c2)c([2H])c1[2H] [Example 4-10, 5-amino-8-(7-methyl-1H-indazol-5-yl)-2-[(5-methyloxazol-4-yl)methyl]-7-(2,3,4,5,6-pentadeuteriophenyl)-[1,2,4]triazolo[4,3-c]pyrimidin-3-one]	10.0	8.7		
C[C@@H]1CN(c2c(-c3ccccc3)nc(N)n3c(=O)n(C[C@@H]4COCCN4)nc23)C[C@H](C)O1 [Example 1-11, 5-amino-8-[(cis)-2,6-dimethylmorpholin-4-yl]-2-[[(3R)-morpholin-3-yl]methyl]-7-phenyl-[1,2,4]triazolo[4,3-c]pyrimidin-3-one]	6.7	<5.6		
